Reference: publication PMC11352961, “Peptide dendrimers transfecting CRISPR/Cas9 plasmid DNA: optimization and mechanism” (RSC Chemical Biology, 2024)
Bridge positions count the residues as written; N and C are the ends. Square brackets hold non-standard residues; d marks the D form. Side chains are listed from the residue outwards. Peptide text beside a SMILES is read from it. I, II: the chains in the order shown. * marks the point of attachment. Stearoyl = CCCCCCCCCCCCCCCCCC(=O)*; Palmitoyl = CCCCCCCCCCCCCCCC(=O)*

Experiments:
[1] = tested on: HEK293 cells; assay: Cell viability by PrestoBlue assay after transfection, HEK cells; type: cell-based; conditions: 4 h
[2] = tested on: HeLa cells; assay: Cell viability by PrestoBlue assay after transfection, HeLa cells; type: cell-based; conditions: 4 h

| SMILES | % viability HEK cells [1] [%] | % viability HeLa cells [2] [%] |
| --- | --- | --- |
| CCCCCCCCCCCCCCCCCC(=O)NCCCC[C@@H](NC(=O)[C@@H](CCCCNC(=O)[C@@H](CC(C)C)NC(=O)[C@@H](CC(C)C)NC(=O)[C@@H](CCCCNC(=O)[C@@H](CC(C)C)NC(=O)[C@@H](CCCNC(=N)N)NC(=O)[C@@H](CCCCNC(=O)[C@@H](CC(C)C)NC(=O)[C@H](N)CCCNC(=N)N)NC(=O)[C@@H](CC(C)C)NC(=O)[C@H](N)CCCNC(=N)N)NC(=O)[C@@H](CC(C)C)NC(=O)[C@@H](CCCNC(=N)N)NC(=O)[C@@H](CCCCNC(=O)[C@@H](CC(C)C)NC(=O)[C@H](N)CCCNC(=N)N)NC(=O)[C@@H](CC(C)C)NC(=O)[C@H](N)CCCNC(=N)N)NC(=O)[C@@H](CC(C)C)NC(=O)[C@@H](CC(C)C)NC(=O)[C@@H](CCCCNC(=O)[C@@H](CC(C)C)NC(=O)[C@@H](CCCNC(=N)N)NC(=O)[C@@H](CCCCNC(=O)[C@@H](CC(C)C)NC(=O)[C@H](N)CCCNC(=N)N)NC(=O)[C@@H](CC(C)C)NC(=O)[C@H](N)CCCNC(=N)N)NC(=O)[C@@H](CC(C)C)NC(=O)[C@@H](CCCNC(=N)N)NC(=O)[C@@H](CCCCNC(=O)[C@@H](CC(C)C)NC(=O)[C@H](N)CCCNC(=N)N)NC(=O)[C@@H](CC(C)C)NC(=O)[C@H](N)CCCNC(=N)N)C(N)=O [Z36] (I: H-[dR][dL][dK]([dL-dR])[dR][dL][dK][dL][dL][dK][dK](Stearoyl)-NH2 / II: H-[dR][dL][dK]([dL-dR])[dR][dL][dK][dL][dL] / III: H-[dR][dL][dK]([dL-dR])[dR][dL] / IV: H-[dR][dL][dK]([dL-dR])[dR][dL]; amide I:6-IV:C, I:9-II:C, II:6-III:C) | 87 ± 2 | 92 ± 6 |
| CCCCCCCCCCCCCCCC(=O)NCCCC[C@H](NC(=O)[C@H](CCCCNC(=O)[C@H](CC(C)C)NC(=O)[C@H](CCCCN)NC(=O)[C@H](CCCCNC(=O)[C@H](CC(C)C)NC(=O)[C@H](CCCCN)NC(=O)[C@H](CCCCNC(=O)[C@H](CC(C)C)NC(=O)[C@@H](N)CCCCN)NC(=O)[C@H](CC(C)C)NC(=O)[C@@H](N)CCCCN)NC(=O)[C@H](CC(C)C)NC(=O)[C@H](CCCCN)NC(=O)[C@H](CCCCNC(=O)[C@H](CC(C)C)NC(=O)[C@@H](N)CCCCN)NC(=O)[C@H](CC(C)C)NC(=O)[C@@H](N)CCCCN)NC(=O)[C@H](CC(C)C)NC(=O)[C@H](CCCCN)NC(=O)[C@H](CCCCNC(=O)[C@H](CC(C)C)NC(=O)[C@H](CCCCN)NC(=O)[C@H](CCCCNC(=O)[C@H](CC(C)C)NC(=O)[C@@H](N)CCCCN)NC(=O)[C@H](CC(C)C)NC(=O)[C@@H](N)CCCCN)NC(=O)[C@H](CC(C)C)NC(=O)[C@H](CCCCN)NC(=O)[C@H](CCCCNC(=O)[C@H](CC(C)C)NC(=O)[C@@H](N)CCCCN)NC(=O)[C@H](CC(C)C)NC(=O)[C@@H](N)CCCCN)C(N)=O [Z4] (I: H-KLK([Leu-Lys])KLKKLKK(Palmitoyl)-NH2 / II: H-KLK([Leu-Lys])KLKKL / III: H-KLK([Leu-Lys])KL / IV: H-KLK([Leu-Lys])KL; amide I:6-IV:C, I:9-II:C, II:6-III:C) | 89 ± 11 | 88 ± 11 |
| CCCCCCCCCCCCCCCCCC(=O)NCCCC[C@@H](NC(=O)[C@@H](CCCCNC(=O)[C@@H](CC(C)C)NC(=O)[C@@H](CCCNC(=N)N)NC(=O)[C@@H](CCCCNC(=O)[C@@H](CC(C)C)NC(=O)[C@@H](CCCNC(=N)N)NC(=O)[C@@H](CCCCNC(=O)[C@@H](CC(C)C)NC(=O)[C@H](N)CCCNC(=N)N)NC(=O)[C@@H](CC(C)C)NC(=O)[C@H](N)CCCNC(=N)N)NC(=O)[C@@H](CC(C)C)NC(=O)[C@@H](CCCNC(=N)N)NC(=O)[C@@H](CCCCNC(=O)[C@@H](CC(C)C)NC(=O)[C@H](N)CCCNC(=N)N)NC(=O)[C@@H](CC(C)C)NC(=O)[C@H](N)CCCNC(=N)N)NC(=O)[C@@H](CC(C)C)NC(=O)[C@@H](CCCNC(=N)N)NC(=O)[C@@H](CCCCNC(=O)[C@@H](CC(C)C)NC(=O)[C@@H](CCCNC(=N)N)NC(=O)[C@@H](CCCCNC(=O)[C@@H](CC(C)C)NC(=O)[C@H](N)CCCNC(=N)N)NC(=O)[C@@H](CC(C)C)NC(=O)[C@H](N)CCCNC(=N)N)NC(=O)[C@@H](CC(C)C)NC(=O)[C@@H](CCCNC(=N)N)NC(=O)[C@@H](CCCCNC(=O)[C@@H](CC(C)C)NC(=O)[C@H](N)CCCNC(=N)N)NC(=O)[C@@H](CC(C)C)NC(=O)[C@H](N)CCCNC(=N)N)C(=O)N[C@H](C)C(N)=O [Z35] (I: H-[dR][dL][dK]([dL-dR])[dR][dL][dK][dR][dL][dK][dK](Stearoyl)[dA]-NH2 / II: H-[dR][dL][dK]([dL-dR])[dR][dL][dK][dR][dL] / III: H-[dR][dL][dK]([dL-dR])[dR][dL] / IV: H-[dR][dL][dK]([dL-dR])[dR][dL]; amide I:6-IV:C, I:9-II:C, II:6-III:C) | 72 ± 5 | 94 ± 6 |
| CCCCCCCCCCCCCCCCCC(=O)NCCCC[C@@H](NC(=O)[C@@H](CCCCNC(=O)[C@@H](CC(C)C)NC(=O)[C@@H](CCCCN)NC(=O)[C@@H](CCCCNC(=O)[C@@H](CC(C)C)NC(=O)[C@@H](CCCCN)NC(=O)[C@@H](CCCCNC(=O)[C@@H](CC(C)C)NC(=O)[C@H](N)CCCCN)NC(=O)[C@@H](CC(C)C)NC(=O)[C@H](N)CCCCN)NC(=O)[C@@H](CC(C)C)NC(=O)[C@@H](CCCCN)NC(=O)[C@@H](CCCCNC(=O)[C@@H](CC(C)C)NC(=O)[C@H](N)CCCCN)NC(=O)[C@@H](CC(C)C)NC(=O)[C@H](N)CCCCN)NC(=O)[C@@H](CC(C)C)NC(=O)[C@@H](CCCCN)NC(=O)[C@@H](CCCCNC(=O)[C@@H](CC(C)C)NC(=O)[C@@H](CCCCN)NC(=O)[C@@H](CCCCNC(=O)[C@@H](CC(C)C)NC(=O)[C@H](N)CCCCN)NC(=O)[C@@H](CC(C)C)NC(=O)[C@H](N)CCCCN)NC(=O)[C@@H](CC(C)C)NC(=O)[C@@H](CCCCN)NC(=O)[C@@H](CCCCNC(=O)[C@@H](CC(C)C)NC(=O)[C@H](N)CCCCN)NC(=O)[C@@H](CC(C)C)NC(=O)[C@H](N)CCCCN)C(=O)N[C@H](C)C(N)=O [Z30] (I: H-[dK][dL][dK]([dL-dK])[dK][dL][dK][dK][dL][dK][dK](Stearoyl)[dA]-NH2 / II: H-[dK][dL][dK]([dL-dK])[dK][dL][dK][dK][dL] / III: H-[dK][dL][dK]([dL-dK])[dK][dL] / IV: H-[dK][dL][dK]([dL-dK])[dK][dL]; amide I:6-IV:C, I:9-II:C, II:6-III:C) | 75 ± 1 | 91 ± 8 |
| CC(C)C[C@H](NC(=O)[C@H](CC(C)C)NC(=O)[C@H](CC(C)C)NC(=O)[C@H](CC(C)C)NC(=O)[C@H](CC(C)C)NC(=O)[C@H](CCCCNC(=O)[C@H](CC(C)C)NC(=O)[C@H](CCCCN)NC(=O)[C@H](CCCCNC(=O)[C@H](CC(C)C)NC(=O)[C@H](CCCCN)NC(=O)[C@H](CCCCNC(=O)[C@H](CC(C)C)NC(=O)[C@@H](N)CCCCN)NC(=O)[C@H](CC(C)C)NC(=O)[C@@H](N)CCCCN)NC(=O)[C@H](CC(C)C)NC(=O)[C@H](CCCCN)NC(=O)[C@H](CCCCNC(=O)[C@H](CC(C)C)NC(=O)[C@@H](N)CCCCN)NC(=O)[C@H](CC(C)C)NC(=O)[C@@H](N)CCCCN)NC(=O)[C@H](CC(C)C)NC(=O)[C@H](CCCCN)NC(=O)[C@H](CCCCNC(=O)[C@H](CC(C)C)NC(=O)[C@H](CCCCN)NC(=O)[C@H](CCCCNC(=O)[C@H](CC(C)C)NC(=O)[C@@H](N)CCCCN)NC(=O)[C@H](CC(C)C)NC(=O)[C@@H](N)CCCCN)NC(=O)[C@H](CC(C)C)NC(=O)[C@H](CCCCN)NC(=O)[C@H](CCCCNC(=O)[C@H](CC(C)C)NC(=O)[C@@H](N)CCCCN)NC(=O)[C@H](CC(C)C)NC(=O)[C@@H](N)CCCCN)C(N)=O [Z3] (I: H-KLK([Leu-Lys])KLKKLKLLLLL-NH2 / II: H-KLK([Leu-Lys])KLKKL / III: H-KLK([Leu-Lys])KL / IV: H-KLK([Leu-Lys])KL; amide I:6-IV:C, I:9-II:C, II:6-III:C) | 76 ± 7 | 51 ± 5 |
| CC(C)C[C@H](NC(=O)[C@H](CCCCN)NC(=O)[C@H](CCCCNC(=O)[C@H](CC(C)C)NC(=O)[C@H](CCCCN)NC(=O)[C@H](CCCCNC(=O)[C@H](CC(C)C)NC(=O)[C@@H](N)CCCCN)NC(=O)[C@H](CC(C)C)NC(=O)[C@@H](N)CCCCN)NC(=O)[C@H](CC(C)C)NC(=O)[C@H](CCCCN)NC(=O)[C@H](CCCCNC(=O)[C@H](CC(C)C)NC(=O)[C@@H](N)CCCCN)NC(=O)[C@H](CC(C)C)NC(=O)[C@@H](N)CCCCN)C(=O)NCCCC[C@H](NC(=O)[C@H](CC(C)C)NC(=O)[C@H](CCCCN)NC(=O)[C@H](CCCCNC(=O)[C@H](CC(C)C)NC(=O)[C@H](CCCCN)NC(=O)[C@H](CCCCNC(=O)[C@H](CC(C)C)NC(=O)[C@@H](N)CCCCN)NC(=O)[C@H](CC(C)C)NC(=O)[C@@H](N)CCCCN)NC(=O)[C@H](CC(C)C)NC(=O)[C@H](CCCCN)NC(=O)[C@H](CCCCNC(=O)[C@H](CC(C)C)NC(=O)[C@@H](N)CCCCN)NC(=O)[C@H](CC(C)C)NC(=O)[C@@H](N)CCCCN)C(=O)NCC(=O)N[C@@H](CO)C(=O)N[C@@H](CS)C(N)=O [G123KL, reference compound] (I: H-KLK([Leu-Lys])KLKKLKGSC-NH2 / II: H-KLK([Leu-Lys])KLKKL / III: H-KLK([Leu-Lys])KL / IV: H-KLK([Leu-Lys])KL; amide I:6-IV:C, I:9-II:C, II:6-III:C) | 52 ± 9 |  |
